Measured values published in PubChem BioAssay AID248 (DTP/NCI, 2004).
Where “and” joins values, the source holds several entries; their conditions need not be identical. Identical values can stand only once. Toxic doses and inconclusive results are not listed.

Tested on: L1210 leukemia ip in BDF1 mice, survival T/C
Test: NCI In Vivo Anticancer Drug Screen. Data for tumor model L1210 Leukemia (intraperitoneal) in B6D2F1 (BDF1) mice
Conditions: endpoint: mean survival time, higher = longer survival
Outline: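 Each compound was tested against a transplantable tumor grown in mice. The endpoint was survival, with treated animals benchmarked against vehicle controls as a simple ratio.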

[1] = dose: 100.0 mg/kg/injection, schedule: Q01DX001 (ip), vehicle: carboxymethylcellulose (CMC)
[2] = dose: 200.0 mg/kg/injection, schedule: Q01DX001 (ip), vehicle: carboxymethylcellulose (CMC)
[3] = dose: 400.0 mg/kg/injection, schedule: Q01DX001 (ip), vehicle: carboxymethylcellulose (CMC)
[4] = dose: 100.0 mg/kg/injection, schedule: Q01DX009 (ip), vehicle: saline
[5] = dose: 100.0 mg/kg/injection, schedule: Q01DX001 (ip), vehicle: Klucel (hydroxypropylcellulose) (HPC)
[6] = dose: 200.0 mg/kg/injection, schedule: Q01DX001 (ip), vehicle: Klucel (hydroxypropylcellulose) (HPC)
[7] = dose: 400.0 mg/kg/injection, schedule: Q01DX001 (ip), vehicle: Klucel (hydroxypropylcellulose) (HPC)
[8] = dose: 100.0 mg/kg/injection, schedule: Q04DX002 (ip), vehicle: saline with Tween-80
[9] = dose: 200.0 mg/kg/injection, schedule: Q04DX002 (ip), vehicle: saline with Tween-80
[10] = dose: 400.0 mg/kg/injection, schedule: Q04DX002 (ip), vehicle: saline with Tween-80
[11] = dose: 100.0 mg/kg/injection, schedule: Q04DX003 (ip), vehicle: saline
[12] = dose: 100.0 mg/kg/injection, schedule: Q04DX003 (ip), vehicle: saline with Tween-80
[13] = dose: 200.0 mg/kg/injection, schedule: Q04DX003 (ip), vehicle: saline with Tween-80
[14] = dose: 400.0 mg/kg/injection, schedule: Q04DX003 (ip), vehicle: saline with Tween-80
[15] = dose: 25.0 mg/kg/injection, schedule: Q04DX003 (ip), vehicle: saline with Tween-80
[16] = dose: 50.0 mg/kg/injection, schedule: Q04DX003 (ip), vehicle: saline with Tween-80

Compound: C/C=C(/C)C(=O)OCCCCCCCCC
- T/C (dose: 100.0 mg/kg/injection, schedule: Q04DX002 (ip), vehicle: Klucel (hydroxypropylcellulose) (HPC)): 102 % of control
- T/C (dose: 200.0 mg/kg/injection, schedule: Q04DX002 (ip), vehicle: Klucel (hydroxypropylcellulose) (HPC)): 102 % of control
- T/C (dose: 400.0 mg/kg/injection, schedule: Q04DX002 (ip), vehicle: Klucel (hydroxypropylcellulose) (HPC)): 94 % of control

Compound: C[n+]1cccc(C(=O)NCCc2c[nH]c3ccccc23)c1
- T/C (dose: 75.0 mg/kg/injection, schedule: Q01DX001 (ip), vehicle: saline): 96 % of control
- T/C (dose: 150.0 mg/kg/injection, schedule: Q01DX001 (ip), vehicle: saline): 104 % of control

Compound: Nc1cc2c(cc1[N+](=O)[O-])-c1ccccc1/C2=N\O
- T/C [1]: 91 % of control
- T/C [2]: 100 % of control
- T/C [3]: 88 % of control

Compound: O=C(c1ccccc1)c1ccc(Oc2ccccc2)cc1
- T/C (dose: 100.0 mg/kg/injection, schedule: Q04DX003 (ip), vehicle: gum acacia): 91 % of control
- T/C (dose: 200.0 mg/kg/injection, schedule: Q04DX003 (ip), vehicle: gum acacia): 97 % of control
- T/C (dose: 400.0 mg/kg/injection, schedule: Q04DX003 (ip), vehicle: gum acacia): 91 % of control

Compound: Oc1ccc(I)c2cccnc12
- T/C (dose: 22.5 mg/kg/injection, schedule: Q01DX009 (ip), vehicle: saline): 165 % of control
- T/C (dose: 45.0 mg/kg/injection, schedule: Q01DX009 (ip), vehicle: saline): 240 % of control
- T/C (dose: 90.0 mg/kg/injection, schedule: Q01DX009 (ip), vehicle: saline): 297 % of control
- T/C [1]: 93 % of control
- T/C [4]: 169 % of control
- T/C (dose: 180.0 mg/kg/injection, schedule: Q01DX009 (ip), vehicle: saline): 206 % of control
- T/C [2]: 90 % of control
- T/C [3]: 95 % of control

Compound: O=C(COc1ccc(Cl)c(Cl)c1)NCc1cccc(NC(=O)c2cccc(S(=O)(=O)F)c2)c1
- T/C [5]: 107 % of control
- T/C [6]: 98 % of control
- T/C [7]: 91 % of control

Compound: O=C1CCC(=O)N1c1ccc(I)cc1
- T/C (dose: 50.0 mg/kg/injection, schedule: Q01DX001 (ip), vehicle: carboxymethylcellulose (CMC)): 96 % of control
- T/C [1]: 98 % of control
- T/C [2]: 93 % of control
- T/C [3]: 107 % of control

Compound: O=NN(CCF)C(=O)NC12CC3CC(CC(C3)C1)C2
- T/C (dose: 40.0 mg/kg/injection, schedule: Q01DX001 (ip), vehicle: carboxymethylcellulose (CMC)): 124 % of control
- T/C (dose: 60.0 mg/kg/injection, schedule: Q01DX001 (ip), vehicle: carboxymethylcellulose (CMC)): 190 % of control
- T/C (dose: 93.0 mg/kg/injection, schedule: Q01DX001 (ip), vehicle: carboxymethylcellulose (CMC)): 192 % of control
- T/C (dose: 187.0 mg/kg/injection, schedule: Q01DX001 (ip), vehicle: carboxymethylcellulose (CMC)): 259 % of control

Compound: CSc1ncc2c(=O)n(-c3ccccc3)[nH]c2n1
- T/C [5]: 103 % of control
- T/C [6]: 97 % of control
- T/C [7]: 87 % of control

Compound: CO/C(C)=C(/C#N)C(N)=S
- T/C [8]: 93 % of control
- T/C [9]: 97 % of control
- T/C [10]: 101 % of control

Compound: O=[N+]([O-])c1ccc(OCCCOc2ccc(S(=O)(=O)F)cc2)cc1
- T/C [11]: 102 % of control
- T/C (dose: 200.0 mg/kg/injection, schedule: Q04DX003 (ip), vehicle: saline): 102 % of control
- T/C (dose: 400.0 mg/kg/injection, schedule: Q04DX003 (ip), vehicle: saline): 106 % of control

Compound: C=CCc1c(F)c(F)c(F)c(F)c1F
- T/C [12]: 97 % of control
- T/C [13]: 95 % of control
- T/C [14]: 98 % of control

Compound: Cc1ccc(C(C)(c2ccccc2)C(C)(CC=O)CC(=O)O)cc1 (configuration not stated)
- T/C [12]: 92 % of control
- T/C [13]: 92 % of control
- T/C [14]: 96 % of control

Compound: CCCC[As](=O)(O)CCO
- T/C [15]: 102 % of control
- T/C [16]: 94 % of control

Compound: Cc1cc(C)c(N2C(=O)C=CC2=O)c(C)c1
- T/C (dose: 0.39 mg/kg/injection, schedule: Q01DX009 (ip), vehicle: saline with Tween-80): 94 % of control
- T/C (dose: 0.78 mg/kg/injection, schedule: Q01DX009 (ip), vehicle: saline with Tween-80): 94 % of control
- T/C (dose: 1.56 mg/kg/injection, schedule: Q01DX009 (ip), vehicle: saline with Tween-80): 95 % of control and 108 % of control
- T/C (dose: 6.25 mg/kg/injection, schedule: Q01DX009 (ip), vehicle: saline with Tween-80): 88 % of control

Compound: CCOc1ccc(-n2c(O)c(N=Nc3ccc(Cl)cc3)c(=O)n(-c3ccc(OC)cc3)c2=S)cc1
- T/C [5]: 96 % of control
- T/C [6]: 98 % of control
- T/C [7]: 96 % of control

Compound: Cn1[nH]cc(/C=N/C(N)=O)c1=O
- T/C (dose: 100.0 mg/kg/injection, schedule: Q01DX001 (ip), vehicle: saline): 93 % of control
- T/C (dose: 200.0 mg/kg/injection, schedule: Q01DX001 (ip), vehicle: saline): 91 % of control
- T/C (dose: 400.0 mg/kg/injection, schedule: Q01DX001 (ip), vehicle: saline): 87 % of control

Compound: OCc1cnc[nH]1
- T/C (dose: 3.0 mg/kg/injection, schedule: Q04DX002 (ip), vehicle: saline): 123 % of control
- T/C (dose: 6.0 mg/kg/injection, schedule: Q04DX002 (ip), vehicle: saline): 97 % of control
- T/C (dose: 12.0 mg/kg/injection, schedule: Q04DX002 (ip), vehicle: saline): 94 % of control
- T/C (dose: 25.0 mg/kg/injection, schedule: Q04DX002 (ip), vehicle: saline): 97 % of control and 121 % of control
- T/C (dose: 50.0 mg/kg/injection, schedule: Q04DX002 (ip), vehicle: saline): 105 % of control

Compound: O=C(Nc1ccccc1O)c1ccccc1
- T/C (dose: 100.0 mg/kg/injection, schedule: Q04DX003 (ip), vehicle: Klucel (hydroxypropylcellulose) (HPC)): 109 % of control
- T/C (dose: 200.0 mg/kg/injection, schedule: Q04DX003 (ip), vehicle: Klucel (hydroxypropylcellulose) (HPC)): 102 % of control
- T/C (dose: 400.0 mg/kg/injection, schedule: Q04DX003 (ip), vehicle: Klucel (hydroxypropylcellulose) (HPC)): 101 % of control

Compound: CCOC(=O)/C(C#N)=N\O
- T/C (dose: 25.0 mg/kg/injection, schedule: Q04DX003 (ip), vehicle: saline): 98 % of control
- T/C (dose: 50.0 mg/kg/injection, schedule: Q01DX009 (ip), vehicle: saline): 111 % of control
- T/C (dose: 50.0 mg/kg/injection, schedule: Q04DX003 (ip), vehicle: saline): 111 % of control
- T/C [4]: 90 % of control
- T/C [11]: 104 % of control and 88 % of control

Compound: CN(C)c1ccc(C(=O)c2ccc(N(C)C)c(N)c2)cc1N
- T/C (dose: 100.0 mg/kg/injection, schedule: Q01DX001 (ip), vehicle: other): 106 % of control
- T/C (dose: 200.0 mg/kg/injection, schedule: Q01DX001 (ip), vehicle: other): 92 % of control
- T/C (dose: 400.0 mg/kg/injection, schedule: Q01DX001 (ip), vehicle: other): 101 % of control

Compound: C[n+]1cccc(C(=O)N/N=C/CCc2ccccc2)c1
- T/C [15]: 95 % of control
- T/C (dose: 50.0 mg/kg/injection, schedule: Q01DX001 (ip), vehicle: saline with Tween-80): 101 % of control
- T/C (dose: 50.0 mg/kg/injection, schedule: Q01DX009 (ip), vehicle: saline with Tween-80): 120 % of control
- T/C [16]: 90 % of control
- T/C (dose: 100.0 mg/kg/injection, schedule: Q01DX001 (ip), vehicle: saline with Tween-80): 103 % of control
- T/C (dose: 100.0 mg/kg/injection, schedule: Q01DX009 (ip), vehicle: saline with Tween-80): 106 % of control
- T/C [12]: 92 % of control
- T/C (dose: 200.0 mg/kg/injection, schedule: Q01DX001 (ip), vehicle: saline with Tween-80): 97 % of control
- T/C (dose: 200.0 mg/kg/injection, schedule: Q01DX009 (ip), vehicle: saline with Tween-80): 95 % of control
- T/C [13]: 94 % of control
- T/C (dose: 400.0 mg/kg/injection, schedule: Q01DX001 (ip), vehicle: saline with Tween-80): 101 % of control

Compound: CCCCN(C(C)=O)c1nnc(NC(C)=O)s1
- T/C [8]: 102 % of control
- T/C [9]: 98 % of control
- T/C [10]: 98 % of control
